Experimental data: paper PMC7139388, “Benzothiazolyl Ureas are Low Micromolar and Uncompetitive Inhibitors of 17β-HSD10 with Implications to Alzheimer’s Disease Treatment” (International Journal of Molecular Sciences, 2020)

Tests used:
human 17β-HSD10 enzyme = molecular target: T1, human 17β-HSD10 enzyme (Homo sapiens, UniProt Q99714); experiment: 17β-HSD10 enzyme inhibition screening and IC50 determination (AAC reductase assay, NADH absorbance at 340 nm); assay type: biochemical; details: 320 μM AAC, 320 μM NADH, 37 °C; for remaining activity at 10 µM: 10 μM compound, read-out: Percentage of Residual Activity at 10 μM
T1 construct: made in house; host or cells: Escherichia coli BL21 (DE3)
T1 sequence (Q99714 1-261): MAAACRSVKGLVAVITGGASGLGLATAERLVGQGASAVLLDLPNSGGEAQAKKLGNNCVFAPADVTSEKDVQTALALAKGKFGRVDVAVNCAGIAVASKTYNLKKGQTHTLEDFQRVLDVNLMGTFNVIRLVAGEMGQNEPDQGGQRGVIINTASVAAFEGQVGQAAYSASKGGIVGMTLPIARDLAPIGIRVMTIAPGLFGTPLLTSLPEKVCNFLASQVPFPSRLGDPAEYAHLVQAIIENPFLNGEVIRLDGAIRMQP
Protocol: The enzyme activity of the human recombinant 17β-HSD10 was determined from previously published methods using acetoacetyl-CoA (AAC) as a substrate. The method was based on the decrease in nicotinamide adenine dinucleotide (NADH) cofactor absorbance at 340 nm during its utilization by the enzyme. To establish the reaction properties correctly, the enzyme kinetic parameters were determined. […] The enzymatic activity of the recombinant protein was determined by using AAC as a substrate for enzyme reduction. To determine the Michaelis constant Km and maximal rate of enzyme reaction Vmax, different substrate concentrations ranging from 0 to 500 μM were incubated with a fixed concentration of cofactor and enzyme. The reaction readout was absorbance at 340 nm for 5 min in 20 s intervals at 37 °C. The data were analyzed by GraphPad Prism 7 (GraphPad Software Inc., San Diego, CA, USA) and Vmax and Km were calculated by non-linear regression analysis using the reaction velocity and substrate concentration data. All reactions were measured in triplicate, and the values were expressed as means ± SD. The general reaction mixture for the reductase activity measurement consisted of 320 μM AAC, 320 μM NADH as the enzyme cofactor and 0.15 μg of recombinant enzyme in assay buffer (10 mM Tris-HCl, pH 7.4, 150 mM NaCl, 1 mM dithiothreitol, 0.001% Tween 20 and 0.01% bovine serum albumin) in 100 µL of reaction buffer. The process was as follows: the reaction mixture of enzyme and cofactor in assay buffer was preincubated for 5 min at 37 °C prior to substrate addition. The reaction was performed in 96-well polystyrene plates at 37 °C (Tecan Spark 10M, Männedorf, Switzerland), and enzyme activity was recorded as the change in absorbance at 340 nm over 1 min and calculated using the molar extinction coefficient of NADH (ε = 6220 M^−1·cm^−1). The novel compounds were screened at 10 μM or 1 μM to determine their ability to inhibit 17β-HSD10 enzyme. The tested compounds were dissolved in dimethyl sulfoxide (DMSO) to a stock concentration of 10 mM and then diluted into deionized water to get the working concentration. The inhibitory screening was based on AAC reductase assay. The remaining enzyme activity was measured at 340 nm at 20 s intervals for 5 min and determined as the difference in absorbance between inhibited and non-inhibited enzymatic reaction. The DMSO was used as well as the inhibitor as the vehicle control. The potent known 17β-HSD10 inhibitor AG18051 [19] was used as a control for the enzymatic reaction. For compounds with at least 50% 17β-HSD10 inhibition in the 10 µM screening assay, the IC50 was determined. For this purpose, the AAC reductase assay was used and the remaining enzyme activity was measured as dose-response inhibition with at least six different inhibitor concentrations (ranging from 0 to 3 μM) at fixed substrate, enzyme, and cofactor concentrations. The data were analyzed by using GraphPad Prism 7 software in non-linear regression, and IC50 values were calculated for each inhibitor from at least three independent measurements, all in triplicate.

Row | Compound | remaining activity at 10 µM (human 17β-HSD10 enzyme) [%] | melting point | IC50 (human 17β-HSD10 enzyme) [µM]
1 | COC(=O)c1ccc2nc(NC(=O)Nc3ccc(O)c(Cl)c3)sc2c1 [Compound 4bd, methyl 2-(3-(3-chloro-4-hydroxyphenyl)ureido)benzo[d]thiazole-6-carboxylate] | 72.6 ± 2.4 | 278 to 280 °C | 
2 | N#Cc1ccc2nc(NC(=O)Nc3ccc(O)c(Cl)c3)sc2c1 [Compound 4be, 1-(3-chloro-4-hydroxyphenyl)-3-(6-cyanobenzo[d]thiazol-2-yl)urea] | 72.1 ± 3.5 | 309 to 311 °C | 
3 | O=C(Nc1ccc(O)c(Cl)c1)Nc1nc2ccc([N+](=O)[O-])cc2s1 [Compound 4bf, 1-(3-chloro-4-hydroxyphenyl)-3-(6-nitrobenzo[d]thiazol-2-yl)urea] | 55.7 ± 7.2 | 277 to 279 °C | 5 ± 1.2
4 | O=C(Nc1ccc(O)c(F)c1)Nc1nc2ccc(F)cc2s1 [Compound 4d, 1-(3-fluoro-4-hydroxyphenyl)-3-(6-fluorobenzo[d]thiazol-2-yl)urea] | 85 ± 2.1 | 243 to 244 °C | 
5 | O=C(Nc1ccc(O)c(F)c1)Nc1nc2ccc(Cl)cc2s1 [Compound 4e, 1-(6-chlorobenzo[d]thiazol-2-yl)-3-(3-fluoro-4-hydroxyphenyl)urea] | 80.2 ± 4.2 | 281 to 282 °C (dec.) | 
6 | O=C(Nc1cc(F)c(O)c(F)c1)Nc1nc2ccc(F)cc2s1 [Compound 4g, 1-(3,5-difluoro-4-hydroxyphenyl)-3-(6-fluorobenzo[d]thiazol-2-yl)urea] | 62.5 ± 3.7 | 317 to 319 °C | 
7 | O=C(Nc1cc(F)c(O)c(F)c1)Nc1nc2ccc(Cl)cc2s1 [Compound 4h, 1-(6-chlorobenzo[d]thiazol-2-yl)-3-(3,5-difluoro-4-hydroxyphenyl)urea] | 58.3 ± 2.5 | 304 °C | 
8 | O=C(Nc1nc2ccc(F)cc2s1)Nc1ccc(F)c(F)c1O [Compound 4m, 1-(3,4-difluoro-2-hydroxyphenyl)-3-(6-fluorobenzo[d]thiazol-2-yl)urea] | 80.5 ± 5.7 | 209 to 210 °C | 
9 | O=C(Nc1nc2ccc(Cl)cc2s1)Nc1ccc(F)c(F)c1O [Compound 4n, 1-(6-chlorobenzo[d]thiazol-2-yl)-3-(3,4-difluoro-2-hydroxyphenyl)urea] | 68.7 ± 7.6 | 212 to 213 °C | 

More lines, now with the values ahead:

Row | remaining activity at 10 µM (human 17β-HSD10 enzyme) [%] | melting point | IC50 (human 17β-HSD10 enzyme) [µM] | Compound
10 | 74.9 ± 6.5 | 241 °C (dec.) |  | COc1ccc2nc(NC(=O)Nc3ccc(O)cc3F)sc2c1 [Compound 4c, 1-(2-fluoro-4-hydroxyphenyl)-3-(6-methoxybenzo[d]thiazol-2-yl)urea]
11 | 84.5 ± 4.8 | 250 °C (dec.) |  | COc1ccc2nc(NC(=O)Nc3ccc(O)c(F)c3)sc2c1 [Compound 4f, 1-(3-fluoro-4-hydroxyphenyl)-3-(6-methoxybenzo[d]thiazol-2-yl)urea]
12 | 56.9 ± 4.4 | 161 to 162 °C |  | COc1ccc2nc(NC(=O)Nc3cc(F)c(O)c(F)c3)sc2c1 [Compound 4i, 1-(3,5-difluoro-4-hydroxyphenyl)-3-(6-methoxybenzo[d]thiazol-2-yl)urea]
13 | 85.6 ± 3.2 | 226 to 228 °C (dec.) |  | O=C(Nc1nc2ccc(F)cc2s1)Nc1ccc(F)cc1O [Compound 4j, 1-(4-fluoro-2-hydroxyphenyl)-3-(6-fluorobenzo[d]thiazol-2-yl)urea]
14 | 91.8 ± 5.7 | 216 to 218 °C (dec.) |  | O=C(Nc1nc2ccc(Cl)cc2s1)Nc1ccc(F)cc1O [Compound 4k, 1-(6-chlorobenzo[d]thiazol-2-yl)-3-(4-fluoro-2-hydroxyphenyl)urea]
15 | 92.1 ± 2.5 | 207 to 208 °C (dec.) |  | COc1ccc2nc(NC(=O)Nc3ccc(F)cc3O)sc2c1 [Compound 4l, 1-(4-fluoro-2-hydroxyphenyl)-3-(6-methoxybenzo[d]thiazol-2-yl)urea]
